This passage reports IC50 and EC50 results from patent publication US20230391772A1, “METHODS AND COMPOSITIONS FOR TARGETED PROTEIN DEGRADATION” (Ranok Therapeutics (Hangzhou) Co. Ltd., priority 2020, published 2023).

What is called EC50 is the concentration giving half of the maximal effect. Read a high EC50 as lower potency in that assay.

Assay [1] deals with T1, HSP90a protein (Homo sapiens, UniProt P07900).
T1 construct: purchased BPS Bioscience 50298
The assay can be described thus: HSP90α-binding fluorescent polarization (FP) assay, BODIPY-labeled RNK04010 probe. To be noted: FP competition with RNK04010 (BODIPY-labeled), 5 nM, 300 min at 25° C. The essentials:
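Binding was scored by fluorescence polarization after adding N-terminal HSP90a to wells holding probe and compound, with compound tested from 20 μM to 5.2 nM. Probe-dependent times at 25° C were 120 min for FITC-geldanamycin and 300 min for RNK04010-BODIPY, both at 5 nM final.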

Assay [2] has as its system MIA PaCa-2 human pancreatic carcinoma. The assay can be described thus: MIA PaCa-2 CCK-8 proliferation assay. The class given is cell-based. Particulars: Homo sapiens, MIA PaCa-2, 72 h, MIA PaCa-2 cells. In a few lines: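 MIA PaCa-2 (2 copies KRAS(G12C)), NCI-H358 and NCI-H23 (1 copy KRAS(G12C) each) were exposed to compound in 3-fold serial dilutions from 20 μM to 1.02 nM. Viability was read as CCK-8 absorbance, and % inhibition was computed against DMSO-treated cells, with cell-free DMSO medium as blank.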
Background: Tetrazolium assays rely on reduction of a dye to a coloured formazan, in cell work by metabolically active cells.

Assay [3] addresses KRAS(G12C) (Homo sapiens, UniProt P01116, G12C). In words: KRAS(G12C)/SOS1 homogeneous time-resolved fluorescence (HTRF) assay. Further details: purchased Cisbio 63ADK000CB16PEG. To be noted: absence of GTP, 4° C. for 3 hr, read-out: KRAS (G12C) binding. In a few lines:
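Three-hour incubation at 4 °C of 3-fold compound dilutions (lowest 1.02 nM) with KRAS(G12C), SOS1 and detection reagents, GTP absent. Disruption of the KRAS(G12C)/SOS1 complex detected by time-resolved fluorescence.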

KRAS(G12C), sequence (P01116 1-188 isoform P01116-2 G12C): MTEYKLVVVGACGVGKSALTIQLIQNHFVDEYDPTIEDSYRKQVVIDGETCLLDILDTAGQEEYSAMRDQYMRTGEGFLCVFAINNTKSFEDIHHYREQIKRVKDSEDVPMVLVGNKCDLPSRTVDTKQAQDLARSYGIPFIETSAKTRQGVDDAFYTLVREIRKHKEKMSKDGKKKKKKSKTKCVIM

As to `C=CC(=O)N1CCN(c2nc(OC[C@@H]3CC[C@H](CN4CCN(C(=O)C5CCN(Cc6ccc(-n7c(O)nnc7-c7cc(C(C)C)c(O)cc7O)cc6)CC5)CC4)N3C)nc3c2CCN(c2cccc4cccc(Cl)c24)C3)C[C@@H]1CC#N` [Compound 313, 2-[(2S)-4-[7-(8-chloronaphthalen-1-yl)-2-{[(2S,5R)-5-({4-[1-({4-[3-(2,4-dihydroxy-5-isopropylphenyl)-5-hydroxy-1,2,4-triazol-4-yl]phenyl}methyl)piperidine-4-carbonyl]piperazin-1-yl}methyl)-1-methylpyrrolidin-2-yl]methoxy}-5H,6H,8H-pyrido [3,4-d]pyrimidin-4-yl]-1-(prop-2-enoyl)piperazin-2-yl]acetonitrile], the IC50 in assay [1] and in assay [3] was under 0.1 µM throughout. For the same molecule, in assay [2], the EC50 was under 0.1 µM.
As for `C=CC(=O)N1CCN(c2nc(OCCN3CCC(C(=O)N4CCC(Cc5ccc(-n6c(O)nnc6-c6cc(C(C)C)c(O)cc6O)cc5)CC4)CC3)nc3c2CCN(c2cccc4cccc(Cl)c24)C3)C[C@@H]1CC#N` [Compound 211, (S)-2-(1-acryloyl-4-(7-(8-chloronaphthalen-1-yl)-2-(2-(4-(4-(4-(3-(2,4-dihydroxy-5-isopropylphenyl)-5-hydroxy-4H-1,2,4-triazol-4-yl)benzyl)piperidine-1-carbonyl)piperidin-1-yl)ethoxy)-5,6,7,8-tetrahydropyrido[3,4-d]pyrimidin-4-yl)piperazin-2-yl)acetonitrile], the IC50 is under 0.1 µM in assay [1] and 0.1 to 1 µM in assay [3]. The EC50 in assay [2] was over 1 µM.
Taken in the same sequence, the figures for `C=CC(=O)N1CCN(c2nc(OC[C@@H]3C[C@H](N4CCC(C(=O)N5CCN(Cc6ccc(-n7c(O)nnc7-c7cc(C(C)C)c(O)cc7O)cc6)CC5)CC4)CN3C)nc3c2CCN(c2cccc4cccc(Cl)c24)C3)C[C@@H]1CC#N` [Compound 317, 2-[(2S)-4-[7-(8-chloronaphthalen-1-yl)-2-{[(2S,4S)-4-{4-[4-({4-[3-(2,4-dihydroxy-5-isopropylphenyl)-5-hydroxy-1,2,4-triazol-4-yl]phenyl}methyl)piperazine-1-carbonyl]piperidin-1-yl}-1-methylpyrrolidin-2yl]methoxy}-5H,6H,8H-pyrido[3,4-d]pyrimidin-4-yl]-1-(prop-2-enoyl)piperazin-2-yl]acetonitrile] were under 0.1 µM, under 0.1 µM and 0.1 to 1 µM.
The matching figures for `C=CC(=O)N1CCN(c2nc(OC[C@@H]3C[C@H](N4CCC(C(=O)NCCc5ccc(CN6CCC(Cc7ccc(-n8c(C(=O)NCC(F)(F)F)nnc8-c8cc(C(C)C)c(O)cc8O)cc7)CC6)cc5)CC4)CN3C)nc3c2CCN(c2cccc4cccc(Cl)c24)C3)C[C@@H]1CC#N` [Compound 330, 1-[(3S,5S)-5-({[7-(8-chloronaphthalen-1-yl)-4-[(3S)-3-(cyanomethyl)-4-(prop-2-enoyl)piperazin-1-yl]-5H,6H,8H-pyrido[3,4-d]pyrimidin-2-yl]oxy}methyl)-1-methylpyrrolidin-3-yl]-N-[2-(4-{[4-({4-[3-(2,4-dihydroxy-5-isopropylphenyl)-5-[(2,2,2-trifluoroethyl)carbamoyl]-1,2,4-triazol-4-yl]phenyl}methyl)piperidin-1-yl]methyl}phenyl)ethyl]piperidine-4-carboxamide]: under 0.1 µM, 0.1 to 1 µM and 0.1 to 1 µM.
Taken in the same sequence, the figures for `C=CC(=O)N1CCN(c2nc(OC[C@@H]3C[C@H](N4CCC(C(=O)NCCc5ccc(-n6c(O)nnc6-c6cc(C(C)C)c(O)cc6O)cc5)CC4)CN3C)nc3c2CCN(c2cccc4cccc(Cl)c24)C3)C[C@@H]1CC#N` [Compound 328, 1-[(3S,5S)-5-({[7-(8-chloronaphthalen-1-yl)-4-[(3S)-3-(cyanomethyl)-4-(prop-2-enoyl)piperazin-1-yl]-5H,6H,8H-pyrido[3,4-d]pyrimidin-2-yl]oxy}methyl)-1-methylpyrrolidin-3-yl]-N-(2-{4-[3-(2,4-dihydroxy-5-isopropylphenyl)-5-hydroxy-1,2,4-triazol-4-yl]phenyl}ethyl)piperidine-4-carboxamide] were under 0.1 µM, under 0.1 µM and over 1 µM.
As for `C=CC(=O)N1CCN(c2nc(OC[C@@H]3C[C@H](C(=O)N4CCN(Cc5ccc(-n6c(C(=O)NCCN7CCN(S(C)(=O)=O)CC7)nnc6-c6cc(C(C)C)c(O)cc6O)cc5)CC4)CN3C)nc3c2CCN(c2cccc4cccc(Cl)c24)C3)C[C@@H]1CC#N` [Compound 344, 4-[4-({4-[(3S,5S)-5-({[7-(8-chloronaphthalen-1-yl)-4-[(3S)-3-(cyanomethyl)-4-(pr-op-2-enoyl)piperazin-1-yl]-5H,6H,8H-pyrido[3,4-d]pyrimidin-2-yl]oxy}methyl)-1-methylpyrrolidine-3-carbonyl]piperazin-1-yl}methyl)phenyl]-5-(2,4-dihydroxy-5-isopropylphenyl)-N-[2-(4-methanesulfonylpiperazin-1-yl)ethyl]-1,2,4-triazole-3-carboxamide], the IC50 in assay [1] and in assay [3] was under 0.1 µM throughout. In assay [2], the EC50 lay within 0.1 to 1 µM.
In the case of `C=CC(=O)N1CCN(c2nc(OC[C@@H]3CC[C@H](C(=O)N4CCN(C(=O)c5ccc(-n6c(C(=O)NCC(F)(F)F)nnc6-c6cc(C(C)C)c(O)cc6O)cc5)CC4)N3C)nc3c2CCN(c2cccc4cccc(Cl)c24)C3)C[C@@H]1CC#N` [Compound 331, 4-(4-{4-[(2R,5S)-5-({[7-(8-chloronaphthalen-1-yl)-4-[(3S)-3-(cyanomethyl)-4-(prop-2-enoyl)piperazin-1-yl]-5H,6H,8H-pyrido[3,4-d]pyrimidin-2-yl]oxy}methyl)-1-methylpyrrolidine-2-carbonyl]piperazine-1-carbonyl}phenyl)-5-(2,4-dihydroxy-5-isopropylphenyl)-N-(2,2,2-trifluoroethyl)-1,2,4-triazole-3-carboxamide], the IC50 in assay [1] and in assay [3] was under 0.1 µM throughout. The same molecule showed an EC50 in assay [2] of under 0.1 µM.
In the case of `C=CC(=O)N1CCN(c2nc(OC[C@@H]3CC[C@H](C(=O)N4CCN(Cc5ccc(-n6c(O)nnc6-c6cc(C)c(O)cc6O)cc5)CC4)N3C)nc3c2CCN(c2cccc4cccc(Cl)c24)C3)C[C@@H]1CC#N` [Compound 325, 2-[(2S)-4-[7-(8-chloronaphthalen-1-yl)-2-{[(2S,5R)-5-[4-({4-[3-(2,4-dihydroxy-5-methylphenyl)-5-hydroxy-1,2,4-triazol-4-yl]phenyl}methyl)piperazine-1-carbonyl]-1-methylpyrrolidin-2-yl]methoxy}-5H,6H,8H-pyrido[3,4-d]pyrimidin-4-yl]-1-(prop-2-enoyl)piperazin-2-yl]acetonitrile], the IC50 in assay [1] and in assay [3] was under 0.1 µM throughout. The EC50 in assay [2] was over 1 µM.
Consider `C=CC(=O)N1CCN(c2nc(OC[C@@H]3C[C@H](NC(=O)C4CCN(C(=O)C5CCN(Cc6ccc(-n7c(O)nnc7-c7cc(C(C)C)c(O)cc7O)cc6)CC5)CC4)CN3C)nc3c2CCN(c2cccc4cccc(Cl)c24)C3)C[C@@H]1CC#N` [Compound 309, N-[(3S,5S)-5-({[7-(8-chloronaphthalen-1-yl)-4-[(3S)-3-(cyanomethyl)-4-(prop-2-enoyl)piperazin-1-yl]-5H,6H,8H-pyrido[3,4-d]pyrimidin-2-yl]oxy}methyl)-1-methylpyrrolidin-3-yl]-1-[1-({4-[3-(2,4-dihydroxy-5-isopropylphenyl)-5-hydroxy-1,2,4-triazol-4-yl]phenyl}methyl)piperidine-4-carbonyl]piperidine-4-carboxamide], for which the IC50 in assay [1] and in assay [3] was under 0.1 µM throughout. For the same molecule, in assay [2], the EC50 lay within 0.1 to 1 µM.
On to `C=CC(=O)N1CCN(c2nc(OC[C@@H]3C[C@@H](OC(=O)NCc4ccc(-n5c(O)nnc5-c5cc(CC)c(O)cc5O)cc4)CN3C)nc3c2CCN(c2cccc4cccc(Cl)c24)C3)C[C@@H]1CC#N` [Compound 295, (3R,5S)-5-(((4-((S)-4-acryloyl-3-(cyanomethyl)piperazin-1-yl)-7-(8-chloronaphthalen-1-yl)-5,6,7,8-tetrahydropyrido[3,4-d]pyrimidin-2-yl)oxy)methyl)-1-methylpyrrolidin-3-yl 4-(3-(5-ethyl-2,4-dihydroxyphenyl)-5-hydroxy-4H-1,2,4-triazol-4-yl)benzylcarbamate], for which the values for the IC50 in assay [1] and in assay [3] were under 0.1 µM and 0.1 to 1 µM, respectively. The EC50 in assay [2] is over 1 µM.
As for `C=CC(=O)N1CCN(c2nc(OC[C@@H]3C[C@@H](OCC(=O)NCc4ccc(-n5c(O)nnc5-c5cc(C(C)C)c(O)cc5O)cc4)CN3C)nc3c2CCN(c2cccc4cccc(Cl)c24)C3)C[C@@H]1CC#N` [Compound 302, 2-(((3R,5S)-5-(((4-((S)-4-acryloyl-3-(cyanomethyl)piperazin-1-yl)-7-(8-chloronaphthalen-1-yl)-5,6,7,8-tetrahydropyrido[3,4-d]pyrimidin-2-yl)oxy)methyl)-1-methylpyrrolidin-3-yl)oxy)-N-(4-(3-(2,4-dihydroxy-5-isopropylphenyl)-5-hydroxy-4H-1,2,4-triazol-4-yl)benzyl)acetamide], the IC50 is under 0.1 µM in assay [1] and 0.1 to 1 µM in assay [3]. In addition, the EC50 in assay [2] is 0.1 to 1 µM.
